Experimental data reported in patent publication US10857136B2, “Compounds for use in the prevention and/or treatment of non-alcoholic fat liver disease and non-alcoholic steatohepatitis” (SJT MOLECULAR RESEARCH, SL, priority 2017, dated 2020).

System: DIO mice (C57Bl/6 J male mice)
Test: Liver lipid content, 36 days assay in DIO mice (colorimetric kits)
Assay type: in vivo
Conditions: 50 mg/kg orally twice daily, after 36 days, vs saline control
Method: To assess the performance of the compounds disclosed in decreasing hepatic lipid content, DIO mice (C57Bl/6 J male mice) were treated with a hydrochloride salt of compound 4a; and with compound 7a during 36 days, versus a control of DIO mice treated with saline (0.9% NaCl) and versus DIO mice treated with Metformin as a positive control.
For the assessment, 60 C57Bl/6 J male mice (16-week-old at delivery and 40 g of average weight), obtained from Charles River France, were put on high fat diet for 10 weeks. The animals were housed in ventilated and enriched housing cages (310×125×127 mm^3) throughout the experimental phase. Animals' cages litters were changed at least once a week. Mice were housed in groups of 10 mice on a normal 12 hours light cycle (at 08:00 pm lights were switched off), at 22±2° C. and 50±10% relative humidity. After reception, mice were maintained for three additional acclimation weeks. During the whole assessment (acclimation+treatment phase) a high fat diet (D12492 purchased from Research Diet Inc; 60% fat) and tap water were provided ad libitum.
After the acclimation period, mice were fasted for 6 hours and blood glucose and plasma insulin were measured. Ten animals, those with lower blood glucose/plasma insulin, were discarded from the study. Then, the others were randomized into 5 homogenous groups (n=10 mice per group) according to their blood glucose/plasma insulin levels (HOMA-IR) and body weight. Mice were treated orally twice daily for 36 days with either saline solution (control group), SJT test compound (4a, 7a; 50 mg/kg) or metformin (150 mg/kg).
Finally, mice were sacrificed, and liver was collected, weighted and stored at −80° C. for additional analysis. Liver samples were dissected for liver lipids assay. Liver lipids were assayed using colorimetric commercial assay kits, from liver samples homogenate after lipid solubilization in deoxycholate as described by Miao et al., J Lipid Res, 2004, 45, 1410-17. Samples were homogenized with an ultrasound probe with 500 μl distilled water during few seconds. Then cholic acid at 1% is added to make lipids soluble. The measurement of the different lipids was then performed using colorimetric kits from Sobioda, France.

Structure (SMILES): COc1ccc(-c2nc(C(=O)NCCN)cc3c2[nH]c2ccccc23)cc1 [Compound 4a, N(-ethylamine)-1-benzosubstituted-β-carboline-3-carboxamide]
- hepatic cholesterol: lower lipid levels than untreated control animals
- hepatic fatty acids: lower lipid levels than untreated control animals
- hepatic triglycerides: lower lipid levels than untreated control animals
